Laboratory results taken from patent US12157746B2, “Tetrahydro-1H-pyrazino[2,1-a]isoindolylquinoline compounds for the treatment of autoimmune disease” (F. HOFFMANN-LA ROCHE AG, priority 2018, dated 2024).

Assay: Human microsomal stability assay
Format: in vitro ADME
Conditions: human liver microsomes 0.5 mg/mL, 37° C., pH 7.4, NADPH regenerating system, 0-30 minutes
Method: Human Microsomal Stability Assay
Human liver microsomes (Cat. NO.: 452117, Corning, USA) were preincubated with test compound for 10 minutes at 37° C. in 100 mM potassium phosphate buffer, pH 7.4. The reactions were initiated by adding NADPH regenerating system. The final incubation mixtures contained […] test compound, 0.5 mg/mL liver microsomal protein, 1 mM MgCl2, 1 mM NADP, 1 unit/mL isocitric dehydrogenase and 6 mM isocitric acid in 100 mM potassium phosphate buffer, pH 7.4. After incubation times of 0, 3, 6, 9, 15 and 30 minutes at 37° C., 300 μL of cold ACN (including internal standard) was added to 100 μL incubation mixture to terminate the reaction. Following precipitation and centrifugation, 100 μL supernatant will be taken out and added 300 uL water. The amount of compound remaining in the samples was determined by LC-MS/MS. Controls of no NADPH regenerating system at zero and 30 minutes were also prepared and analyzed. The results were categorized as: low (<7.0 mLJmin/kg), medium (7.0-16.2 mL/min/kg) and high (16.2-23.2 mLJmin/kg).

| CL (h) | SMILES |
| --- | --- |
| 8.0 mL/min/kg | C[C@@H]1CN(c2ccc(C#N)n3nccc23)C[C@@H]2c3ccc(N4CCC(C)(N)CC4)cc3CN12 [Example 100, 4-[(4R,10bS)-8-(4-amino-4-methyl-1-piperidyl)-4-methyl-3,4,6,10b-tetrahydro-1H-pyrazino[2,1-a]isoindol-2-yl]pyrazolo[1,5-a]pyridine-7-carbonitrile] |
| 8.0 mL/min/kg | C[C@@H]1CN(c2ccc(C#N)c3ncccc23)C[C@@H]2c3ccc(C(=O)N4C[C@@H]5C[C@H]4CN5)cc3CN12 [Example 87, 5-[(4R,10bS)-8-[(1S,4S)-2,5-diazabicyclo[2.2.1]heptane-2-carbonyl]-4-methyl-3,4,6,10b-tetrahydro-1H-pyrazino[2,1-a]isoindol-2-yl]quinoline-8-carbonitrile] |
| 7.7 mL/min/kg | C[C@@H]1CN(c2ccc(C#N)c3ncccc23)C[C@@H]2c3ccc(C(=O)N4CCNCC4)cc3CN12 [Example 86, 5-[(4R,10bS)-4-methyl-8-(piperazine-1-carbonyl)-3,4,6,10b-tetrahydro-1H-pyrazino[2,1-a]isoindol-2-yl]quinoline-8-carbonitrile] |
| 7.7 mL/min/kg | C[C@@H]1CN(c2ccc(C#N)c3ncccc23)C[C@@H]2c3ccc(OC4CNC4)cc3CN12 [Example 27, 5-[(4R,10bS)-8-(azetidin-3-yloxy)-4-methyl-3,4,6,10b-tetrahydro-1H-pyrazino[2,1-a]isoindol-2-yl]quinoline-8-carbonitrile] |
